For the assay, the system named is Rhizoctonia solani. Nature of the assay: Cucumber seed treatment test against Rhizoctonia solani (Test Example 1). Format: in vivo. The conditions noted are these: cucumber seeds, acetone solution, seven days after seeding. The text has this:
An emulsifiable concentrate was obtained by mixing clothianidin and metconazole.
In accordance with Seed Treatment Example 5, cucumber (Sagami Hanjiro) seeds were smeared with the emulsifiable concentrate using a rotary seed treating machine (seed dresser, manufactured by Hans-Ulrich Hege GmbH).
The obtained treated seeds were allowed to stand overnight and sown on the soil with which each plastic pot was filled and then covered with the soil mixed with Rhizoctonia solani cultured in a bran culture medium. While sprinkling, culture was conducted in a greenhouse. Seven days after seeding, the number of seeds not showing epicotyl emergence was checked and severity was calculated using Equation 1 shown below. Based on the severity, the control value was calculated using Equation 2.
For comparison, acetone solutions each having a predetermined concentration of clothianidin or metconazole were prepared by mixing each of clothianidin and metconazole with acetone, and the same test was carried out. Severity=(number of seeds not showing epicotyl emergence)×100/(total number of sown seeds) Equation 1 Control value=100×(A−B)/A Equation 2 • A: Severity of plants of the chemical non-treated district • B: Severity of plants of the chemical treated district

`CN/C(=N\[N+](=O)[O-])NCc1cnc(Cl)s1` [Clothianidin, clothianidin] yielded a Control value (clothianidin 200 g, metconazole 0 g per 100 kg of seeds) of 4.

`CC1(C)CCC(Cc2ccc(Cl)cc2)C1(O)Cn1cncn1` (centres unmarked) [Metconazole, metconazole] gave a Control value (clothianidin 0 g, metconazole 1 g per 100 kg of seeds) of 39.

These data come from patent publication US8524637B2, “Composition for controlling pests and method for controlling pests” (Sumitomo Chemical Company, Limited, priority 2008, dated 2013).
